Experimental data from PubChem BioAssay AID330 (DTP/NCI, 2004).
Toxic doses and inconclusive results are not listed. The calls were made as follows: active = survival T/C of 150% or more; inactive = T/C below 125% in these data. Peptide text beside a SMILES is read from it.

System: P388 leukemia ip, CD2F1 mice, survival T/C
Assay: NCI In Vivo Anticancer Drug Screen. Data for tumor model P388 Leukemia (intraperitoneal) in CD2F1 (CDF1) mice
Details: endpoint: median survival time, higher = longer survival
In short: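 Mice carrying the transplanted tumor received test compound or vehicle. Survival was recorded in each group, and the value is the treated-group measurement divided by that of the vehicle-treated control group.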

[1] = dose: 100.0 mg/kg/injection, schedule: Q04DX003 (ip), vehicle: saline with Tween-80
[2] = dose: 200.0 mg/kg/injection, schedule: Q04DX003 (ip), vehicle: saline with Tween-80
[3] = dose: 400.0 mg/kg/injection, schedule: Q04DX003 (ip), vehicle: saline with Tween-80
[4] = dose: 50.0 mg/kg/injection, schedule: Q01DX009 (ip), vehicle: Klucel (hydroxypropylcellulose) (HPC)
[5] = dose: 100.0 mg/kg/injection, schedule: Q01DX009 (ip), vehicle: Klucel (hydroxypropylcellulose) (HPC)
[6] = dose: 200.0 mg/kg/injection, schedule: Q01DX009 (ip), vehicle: Klucel (hydroxypropylcellulose) (HPC)
[7] = dose: 50.0 mg/kg/injection, schedule: Q01DX009 (ip), vehicle: saline with Tween-80
[8] = dose: 100.0 mg/kg/injection, schedule: Q01DX009 (ip), vehicle: saline with Tween-80
[9] = dose: 50.0 mg/kg/injection, schedule: Q01DX005 (ip), vehicle: saline with Tween-80
[10] = dose: 200.0 mg/kg/injection, schedule: Q01DX009 (ip), vehicle: saline with Tween-80
[11] = dose: 400.0 mg/kg/injection, schedule: Q01DX009 (ip), vehicle: saline with Tween-80
[12] = dose: 100.0 mg/kg/injection, schedule: Q01DX005 (ip), vehicle: saline with Tween-80
[13] = dose: 60.0 mg/kg/injection, schedule: Q01DX005 (ip), vehicle: saline with Tween-80
[14] = dose: 120.0 mg/kg/injection, schedule: Q01DX005 (ip), vehicle: saline with Tween-80
[15] = dose: 240.0 mg/kg/injection, schedule: Q01DX005 (ip), vehicle: saline with Tween-80

Measured: T/C

CC(O)C(NCNC(=O)C1=C(O)C2(O)C(=O)C3=C(O)c4c(O)cccc4C(C)(O)C3CC2C(N(C)C)C1=O)C(=O)O (centres undefined)
inactive: dose: 25.0 mg/kg/injection, schedule: Q01DX005 (ip), vehicle: saline 107 % of control | dose: 50.0 mg/kg/injection, schedule: Q01DX005 (ip), vehicle: saline 108 % of control | dose: 100.0 mg/kg/injection, schedule: Q01DX005 (ip), vehicle: saline 111 % of control | [1] 104 % of control | dose: 200.0 mg/kg/injection, schedule: Q01DX005 (ip), vehicle: saline 100 % of control | [2] 104 % of control | [3] 104 % of control

COc1ccc(C2=NOP(c3ccccc3)(c3ccccc3)(c3ccccc3)C2)cc1
inactive: dose: 1.56 mg/kg/injection, schedule: Q01DX009 (ip), vehicle: water 102 % of control | dose: 3.13 mg/kg/injection, schedule: Q01DX009 (ip), vehicle: water 106 % of control | dose: 6.25 mg/kg/injection, schedule: Q01DX009 (ip), vehicle: water 90 % of control | dose: 12.5 mg/kg/injection, schedule: Q01DX009 (ip), vehicle: water 107 % of control | dose: 25.0 mg/kg/injection, schedule: Q01DX009 (ip), vehicle: other 99 % of control | dose: 25.0 mg/kg/injection, schedule: Q01DX009 (ip), vehicle: water 104 % of control | [4] 105 % of control | [5] 101 % of control | [6] 101 % of control

COc1ccc(CCN2C(=O)C(=O)N(C3CCCCC3)C2=O)cc1OC
inactive: [4] 93 % of control | [5] 95 % of control | [6] 100 % of control

CC(C)(C)C1CCC(=NSC(c2ccccc2)(c2ccccc2)c2ccccc2)CC1 (centres undefined)
inactive: dose: 100.0 mg/kg/injection, schedule: Q04DX002 (ip), vehicle: saline with Tween-80 95 % of control | dose: 200.0 mg/kg/injection, schedule: Q04DX002 (ip), vehicle: saline with Tween-80 87 % of control | dose: 400.0 mg/kg/injection, schedule: Q04DX002 (ip), vehicle: saline with Tween-80 89 % of control

CCCC/C=C/C=C/C=C/CCCCCCCC(=O)OC(COC(=O)CCCCCCC/C=C/C1C=CC(CCCC)C(C(=O)O)C1C(=O)O)COC(=O)CCCCCCC/C=C/C1C=CC(CCCC)C(C(=O)O)C1C(=O)O (centres undefined)
inactive: [4] 101 % of control | [5] 111 % of control | [6] 108 % of control

O=C1C(c2ccccc2)=C(c2ccccc2)C2(c3ccccc3)Oc3c(Cl)c(Cl)c(Cl)c(Cl)c3OC12c1ccccc1 (centres undefined)
inactive: [7] 89 % of control | [8] 93 % of control

Cc1ccc(S(=O)(=O)NC(=O)NC(=S)c2ccco2)cc1
inactive: dose: 100.0 mg/kg/injection, schedule: Q01DX001 (ip), vehicle: saline with Tween-80 101 % of control | dose: 200.0 mg/kg/injection, schedule: Q01DX001 (ip), vehicle: saline with Tween-80 97 % of control | dose: 400.0 mg/kg/injection, schedule: Q01DX001 (ip), vehicle: saline with Tween-80 102 % of control

BrCCCCOCBr
inactive: dose: 60.0 mg/kg/injection, schedule: Q01DX005 (ip), vehicle: saline 95 % of control | dose: 120.0 mg/kg/injection, schedule: Q01DX005 (ip), vehicle: saline 95 % of control | dose: 240.0 mg/kg/injection, schedule: Q01DX005 (ip), vehicle: saline 86 % of control

CC(=O)CS(F)(F)(F)(F)F
inactive: [9] 105 % of control

CC(=Nc1ccccc1)C1=C(O)C(CC(C)C)NC1=O (centres undefined)
inactive: [7] 103 % of control | [8] 99 % of control | [10] 100 % of control | [11] 110 % of control

Nc1ccccc1SSc1ccccc1C(=O)O
inactive: dose: 50.0 mg/kg/injection, schedule: Q01DX005 (ip), vehicle: Klucel (hydroxypropylcellulose) (HPC) 112 % of control | dose: 100.0 mg/kg/injection, schedule: Q01DX005 (ip), vehicle: Klucel (hydroxypropylcellulose) (HPC) 112 % of control

CC(C)CC(=O)C1C(c2ccccc2)CC(=O)C(C(C)C)C1c1ccccc1 (centres undefined)
inactive: [9] 92 % of control | [12] 92 % of control

Cc1cc2c(=O)c(C(=O)O)c[nH]c2cc1-n1cccc1
inactive: [13] 97 % of control | [14] 100 % of control | [15] 102 % of control

CC1CCC(=O)CN1Cc1ccccc1 (centres undefined)
inactive: [9] 109 % of control | [12] 101 % of control

CC1(c2ccccc2)COC(=O)O/C1=N/OCc1ccccc1 (centres undefined)
inactive: [9] 100 % of control | [12] 107 % of control | dose: 200.0 mg/kg/injection, schedule: Q01DX005 (ip), vehicle: saline with Tween-80 99 % of control

C=CC1CCCC[N+]1(C)Cc1ccccc1 (centres undefined)
inactive: dose: 6.25 mg/kg/injection, schedule: Q01DX005 (ip), vehicle: saline 94 % of control | dose: 12.5 mg/kg/injection, schedule: Q01DX005 (ip), vehicle: saline 98 % of control

C/C=C(/C)C(=O)OC1C[C@@]2(C)OC2C(OC(C)=O)[C@@]2(C)CC[C@@](O)(C(C)C)C12 (some centres undefined)
inactive: dose: 35.0 mg/kg/injection, schedule: Q01DX005 (ip), vehicle: saline with Tween-80 101 % of control | dose: 70.0 mg/kg/injection, schedule: Q01DX005 (ip), vehicle: saline with Tween-80 96 % of control | dose: 140.0 mg/kg/injection, schedule: Q01DX005 (ip), vehicle: saline with Tween-80 90 % of control

COC(=O)C(=O)C(C)C(=O)C(C)c1nc(NC(=O)Nc2ccc(Cl)cc2)n[nH]1 (centres undefined)
inactive: [13] 101 % of control | [14] 101 % of control | [15] 100 % of control

COc1ccc2c(c1)C(=O)C1(CC2)OC1c1ccncc1 (centres undefined)
inactive: [5] 97 % of control | [6] 100 % of control

CSc1ncnc2c1c1c(N)ncnc1n2C1OC(CO)C(O)C1O (centres undefined)
inactive: dose: 25.0 mg/kg/injection, schedule: Q01DX005 (ip), vehicle: other 97 % of control | dose: 50.0 mg/kg/injection, schedule: Q01DX005 (ip), vehicle: other 97 % of control | dose: 100.0 mg/kg/injection, schedule: Q01DX005 (ip), vehicle: other 109 % of control | dose: 200.0 mg/kg/injection, schedule: Q01DX005 (ip), vehicle: other 105 % of control

O=c1[nH]c(=O)c2n[nH]nc2[nH]1
inactive: [8] 86 % of control | [1] 90 % of control | [10] 100 % of control | [2] 90 % of control | [11] 95 % of control | [3] 100 % of control

Cc1c(C)c2ccccc2[nH]c1=O
inactive: [4] 101 % of control | [5] 104 % of control | [6] 113 % of control | dose: 400.0 mg/kg/injection, schedule: Q01DX009 (ip), vehicle: Klucel (hydroxypropylcellulose) (HPC) 100 % of control

CC(N)C(=O)NCC(=O)NC(CO)C(=O)NC(CCC(=O)O)C(=O)O (centres undefined) (H-AGSE-OH; configuration not given here)
inactive: dose: 9.0 mg/kg/injection, schedule: Q01DX005 (ip), vehicle: water 96 % of control | dose: 18.0 mg/kg/injection, schedule: Q01DX005 (ip), vehicle: water 102 % of control | dose: 36.0 mg/kg/injection, schedule: Q01DX005 (ip), vehicle: water 100 % of control | dose: 72.0 mg/kg/injection, schedule: Q01DX005 (ip), vehicle: water 110 % of control | dose: 144.0 mg/kg/injection, schedule: Q01DX005 (ip), vehicle: water 103 % of control
